Structures can show the parent of a compound that is named as a salt.
Assays:
MAO-A [1] = biological target: T1, MAO-A (Homo sapiens, UniProt P21397); settings: IC50 values for LSD1 vs. MAO-A
T1 sequence (P21397 1-527): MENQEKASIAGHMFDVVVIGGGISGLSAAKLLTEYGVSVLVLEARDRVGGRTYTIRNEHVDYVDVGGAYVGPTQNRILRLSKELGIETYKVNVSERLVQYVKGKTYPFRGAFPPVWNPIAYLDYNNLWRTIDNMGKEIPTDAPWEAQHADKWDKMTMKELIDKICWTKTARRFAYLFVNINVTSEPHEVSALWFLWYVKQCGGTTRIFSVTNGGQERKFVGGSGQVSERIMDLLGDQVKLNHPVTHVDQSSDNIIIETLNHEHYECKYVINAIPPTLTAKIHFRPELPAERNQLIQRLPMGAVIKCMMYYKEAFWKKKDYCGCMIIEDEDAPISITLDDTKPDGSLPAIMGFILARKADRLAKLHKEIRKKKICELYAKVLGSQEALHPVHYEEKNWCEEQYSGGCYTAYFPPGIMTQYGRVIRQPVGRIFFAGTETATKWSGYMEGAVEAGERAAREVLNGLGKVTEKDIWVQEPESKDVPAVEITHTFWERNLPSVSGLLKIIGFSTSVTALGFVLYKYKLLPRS
Method: (§1) MAO-A and MAO-B enzymes were purchased from Sigma-Aldrich and the inhibition assay was tested with Promega MAO-Glo™ Assay kit according to the manufacturer's protocol. The luminescent signals were detected using Envision (PerkinElmer). The test was carried out in triplicate. And the IC50 data was calculated using the software GraphPad Prism 5, and chosen the equation “sigmoidal dose–response (variable slope)” for curve fitting.

MAO-B = biological target: T2, MAO-B (Homo sapiens, UniProt P27338); experiment: biochemical
T2 sequence (P27338 1-520): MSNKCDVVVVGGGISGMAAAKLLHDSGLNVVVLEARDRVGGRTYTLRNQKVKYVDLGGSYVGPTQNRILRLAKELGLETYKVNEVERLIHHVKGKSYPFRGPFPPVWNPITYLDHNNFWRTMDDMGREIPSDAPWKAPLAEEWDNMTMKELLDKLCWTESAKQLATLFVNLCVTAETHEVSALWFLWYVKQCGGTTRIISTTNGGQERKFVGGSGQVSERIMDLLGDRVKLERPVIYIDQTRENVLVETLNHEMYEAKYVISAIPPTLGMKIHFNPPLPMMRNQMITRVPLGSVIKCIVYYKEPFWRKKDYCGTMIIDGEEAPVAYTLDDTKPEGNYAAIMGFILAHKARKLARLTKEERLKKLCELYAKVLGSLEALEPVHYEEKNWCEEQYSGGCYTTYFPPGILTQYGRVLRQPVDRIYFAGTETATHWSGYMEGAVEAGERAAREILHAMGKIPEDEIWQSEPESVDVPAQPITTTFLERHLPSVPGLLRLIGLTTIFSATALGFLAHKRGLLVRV
Method: as §1

MAO-A [2] = biological target: T1, MAO-A; experiment: biochemical
Method: as §1

[3] = biological target: T3, Recombinant human LSD1 (172–852 aa) (Homo sapiens, UniProt O60341); experiment: biochemical
Method: (§2) LSD1 or LSD2 enzyme inhibition assay was performed with Lance Ultra LSD1 Histone H3-Lysine 4 Demethylase Assay kit (Perkin Elmer) according to the manufacturer's protocol. […] The test was carried out in triplicate. And the IC50 data was calculated using the software GraphPad Prism 5, and chosen the equation “sigmoidal dose–response (variable slope)” for curve fitting.

full-length LSD2 = biological target: T4, full-length LSD2 (Homo sapiens, UniProt Q8NB78); experiment: LSD2 inhibition assay (Lance Ultra kit, TR-FRET); type: biochemical
T4 sequence (Q8NB78 1-822): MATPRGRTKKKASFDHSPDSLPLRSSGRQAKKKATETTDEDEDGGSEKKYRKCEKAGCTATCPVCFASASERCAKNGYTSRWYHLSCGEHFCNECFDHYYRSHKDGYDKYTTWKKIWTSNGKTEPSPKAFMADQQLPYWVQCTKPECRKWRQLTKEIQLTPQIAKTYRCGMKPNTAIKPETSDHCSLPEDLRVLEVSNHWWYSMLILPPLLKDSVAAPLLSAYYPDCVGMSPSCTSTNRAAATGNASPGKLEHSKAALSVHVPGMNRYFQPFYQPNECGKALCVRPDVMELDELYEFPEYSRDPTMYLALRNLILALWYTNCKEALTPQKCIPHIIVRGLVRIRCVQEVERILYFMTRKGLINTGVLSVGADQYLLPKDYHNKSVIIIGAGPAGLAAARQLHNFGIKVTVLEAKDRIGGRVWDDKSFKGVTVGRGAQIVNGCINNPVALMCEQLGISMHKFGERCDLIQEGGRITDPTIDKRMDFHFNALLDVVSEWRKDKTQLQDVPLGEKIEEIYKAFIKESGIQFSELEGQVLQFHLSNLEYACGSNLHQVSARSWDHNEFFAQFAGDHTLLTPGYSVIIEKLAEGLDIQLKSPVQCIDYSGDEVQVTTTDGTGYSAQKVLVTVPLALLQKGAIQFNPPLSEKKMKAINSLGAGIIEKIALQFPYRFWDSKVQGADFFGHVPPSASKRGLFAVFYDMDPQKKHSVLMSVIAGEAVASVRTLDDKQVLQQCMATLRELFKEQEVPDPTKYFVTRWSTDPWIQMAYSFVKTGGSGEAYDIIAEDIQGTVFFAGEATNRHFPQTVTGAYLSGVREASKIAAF
Method: as §2

[4] = biological target: T3, Recombinant human LSD1 (172–852 aa); settings: 23a, 23b vs 21a, 21b
Method: as §2

[5] = MAO-B, IC50, Table 1, mean ± SEM, eight-point experiments, three independent experiments
[6] = MAO-A, IC50, Table 1, mean ± SEM, eight-point experiments, three independent experiments

Row | SMILES | selectivity index LSD1 vs. MAO-A in words (MAO-A [1]) | IC50 (MAO-B; [5]) [nM] | IC50 (MAO-A [2]; [6]) [nM] | IC50 [3] [nM] | IC50 (full-length LSD2) [nM] | IC50 (MAO-B; MAO-B IC50) [nM] | IC50 (MAO-A [2]; MAO-A IC50) [nM] | fold less potent at LSD1 than the unsubstituted derivatives 21a and 21b [4]
1 | COc1cc(F)ccc1CN[C@H]1CC12CCc1ccccc12 (stereo in doubt) [Compound 18b, (2S)-N-(4-Fluoro-2-methoxybenzyl)-2′,3′-dihydrospiro[cyclopropane-1,1′-inden]-2-amine] | low | 31000 ± 4000 | 90 ± 10 | 15 ± 3 | 490 ± 100 | – | – | –
2 | COc1cc(F)ccc1CN[C@@H]1CC12CCc1ccccc12 (stereo in doubt) [Compound 18a, (2R)-N-(4-Fluoro-2-methoxybenzyl)-2′,3′-dihydrospiro[cyclopropane-1,1′-inden]-2-amine] | – | 8700 ± 1100 | 2200 ± 700 | 7.1 ± 1.3 | 660 ± 60 | – | – | –
3 | COc1ccc(F)cc1CN[C@@H]1CC12CCc1ccccc12 (stereo in doubt) [Compound 17a, (2R)-N-(5-Fluoro-2-methoxybenzyl)-2′,3′-dihydrospiro[cyclopropane-1,1′-inden]-2-amine] | – | 2300 ± 400 | 920 ± 180 | 6.6 ± 1.5 | 800 ± 270 | – | – | –
4 | c1ccc(CN[C@H]2CC23CCc2ccccc23)cc1 (stereo in doubt) [Compound 13b, (2S)-N-Benzyl-2′,3′-dihydrospiro[cyclopropane-1,1′-inden]-2-amine] | low | 5100 ± 100 | 130 ± 10 | 110 ± 20 | 2000 ± 200 | – | – | –
5 | N[C@@H]1CC12CCc1cc(-c3ccccc3)ccc12 (stereo in doubt) [Compound 28a, (2R)-5′-phenyl-2′,3′-dihydrospiro[cyclopropane-1,1′-inden]-2-amine hydrochloride] | – | – | – | 100 ± 10 | 94000 | 170 | 460 | –
6 | Fc1ncccc1CN[C@H]1CC12CCc1ccccc12 (stereo in doubt) [Compound 23b, (2S)-N-((2-Fluoropyridin-3-yl)methyl)-2′,3′-dihydrospiro[cyclopropane-1,1′-inden]-2-amine] | – | 29000 ± 4000 | 9800 ± 800 | 70 ± 3 | 8700 ± 800 | – | – | approximately 4 fold
7 | COc1ccc(F)cc1CN[C@H]1CC12CCc1ccccc12 (stereo in doubt) [Compound 17b, (2S)-N-(5-Fluoro-2-methoxybenzyl)-2′,3′-dihydrospiro[cyclopropane-1,1′-inden]-2-amine] | – | 27000 ± 4000 | 120 ± 10 | 17 ± 3 | 1700 ± 500 | – | – | –
8 | Fc1ncccc1CN[C@@H]1CC12CCc1ccccc12 (mixture of isomers) [Compound 23a, (2R)-N-((2-Fluoropyridin-3-yl)methyl)-2′,3′-dihydrospiro[cyclopropane-1,1′-inden]-2-amine] | – | 8200 ± 1500 | 9700 ± 1500 | 64 ± 1 | 13000 ± 3000 | – | – | approximately 4 fold

From article PMC9077246, “Novel spirocyclic tranylcypromine derivatives as lysine-specific demethylase 1 (LSD1) inhibitors” (RSC Advances, 2018)
